# Laboratory results: patent publication US20260008818A1, “CYCLIC PEPTIDE OR SALT THEREOF, AND USES THEREOF” (FUJIFILM Corporation, priority 2023, published 2026)
# Numbered stars: 1 amine (or outer) side, 2 acyl side, 3 side chain; on linkers, the order of the positions; unused ones are H or OH. Bridge positions count the residues as written; N and C are the ends. Ends that are not written are not given here. acetyl = K(acetyl): lysine side chain modified with a haloacetyl group whose halogen is replaced by the thiol of another residue, giving a thioether ring, O=C(C[*:1])[*:2]; COCH2 = acetyl group that carries the bridge
# Tested on: Recombinant Human FGFR1 alpha (IIIc) Fc Chimera Protein
# Assay: Binding affinity of enzymatically synthesized cyclic peptide to FGFR by ELISA
# Settings: luminescence signal at reaction concentration 10 nmol/L, SEQ ID NO: 39 standardized to 1, enzyme synthesis product
# Method in brief: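 Graded A–D from luminescence at 10 nmol/L peptide, expressed relative to SEQ ID NO: 39 after subtracting wells lacking receptor. Read-out used anti-Myc antibody (2 h, RT) with chemiluminescent substrate, following 3 h RT binding of peptide to immobilized FGFR1α(IIIc)-Fc, 5 ng per well.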
row,Substance,Evaluation result of binding affinity to FGFR
1,137 (HCSYEILQFHGHEAPFRVK(COCH2)V; thioether 2-19 (inferred)) [compound 137],A (0.7 or more)
2,190 (HCSYERLQFHGHHAPFRVK(COCH2)V; thioether 2-19 via Ac) [compound 190],A (0.7 or more)
3,130 (HCSYSRLQFHGHEAPFRVK(COCH2)V; thioether 2-19 (inferred)) [compound 130],B (0.5 or more and less than 0.7)
4,213 (HCSYERLQFHGHEAPFRVK(COCH2)Y; thioether 2-19 via Ac; not fully specified) [compound 213],A (0.7 or more)
5,155 (HCSYERLEFHGHEAPFRVK(COCH2)V; thioether 2-19 (inferred)) [compound 155],A (0.7 or more)
6,145 (HCSYERLGFHGHEAPFRVK(COCH2)V; thioether 2-19 (inferred)) [compound 145],C (0.1 or more and less than 0.5)
7,68 (PCSYERLQFHGHEAPFRVK(COCH2)V; thioether 2-19 (inferred)) [compound 68],A (0.7 or more)
8,146 (HCSYERLLFHGHEAPFRVK(COCH2)V; thioether 2-19 (inferred)) [compound 146],A (0.7 or more)
9,63 (HCSYERLQFHGHEAAFRVK(COCH2)V; thioether 2-19 (inferred)) [compound 63],C (0.1 or more and less than 0.5)
10,199 (HCSYERLQFHGHEAPFSVK(COCH2)V; thioether 2-19 via Ac) [compound 199],B (0.5 or more and less than 0.7)
11,45 (YCFQKLEFFGHLAPFLFK(COCH2)S; thioether 2-18 (inferred)) [compound 45],B (0.5 or more and less than 0.7)
12,44 (FCPHIFLGHNAPFLVQK(COCH2)V; thioether 2-17 (inferred)) [compound 44],A (0.7 or more)
13,122 (HCSYLRLQFHGHEAPFRVK(COCH2)V; thioether 2-19 (inferred)) [compound 122],C (0.1 or more and less than 0.5)
14,52 (SCYERVVLFGWQAPYWAK(COCH2)P; thioether 2-18 (inferred)) [compound 52],B (0.5 or more and less than 0.7)
15,176 (HCSYERLQFHGHGAPFRVK(COCH2)V; thioether 2-19 (inferred)) [compound 176],C (0.1 or more and less than 0.5)
16,158 (HCSYERLQLHGHEAPFRVK(COCH2)V; thioether 2-19 (inferred)) [compound 158],B (0.5 or more and less than 0.7)
17,106 (HCSYERLQFHWHEAPFRVK(COCH2)V; thioether 2-19 (inferred)) [compound 106],C (0.1 or more and less than 0.5)
18,216 (HCSYERLQFHGHEAPFRVK(COCH2)N; thioether 2-19 via Ac; not fully specified) [compound 216],A (0.7 or more)
19,102 (HCSSERLQFHGHEAPFRVK(COCH2)V; thioether 2-19 (inferred)) [compound 102],C (0.1 or more and less than 0.5)
20,82 (HCGYERLQFHGHEAPFRVKV; not fully specified; Description of Artificial Sequence: Cyclic peptide) [compound 82],A (0.7 or more)
21,91 (HCQYERLQFHGHEAPFRVK(COCH2)V; thioether 2-19 via acetyl; not fully specified; printed as H-(C)-QYERLQFHGHEAPFRV-(K(acetyl))-V) [compound 91],A (0.7 or more)
22,86 (HCVYERLQFHGHEAPFRVKV; not fully specified; Description of Artificial Sequence: Cyclic peptide) [compound 86],A (0.7 or more)
23,60 (HCSYERLAFHGHEAPFRVK(COCH2)V; thioether 2-19 (inferred)) [compound 60],B (0.5 or more and less than 0.7)
24,187 (HCSYERLQFHGHTAPFRVK(COCH2)V; thioether 2-19 via Ac) [compound 187],A (0.7 or more)
25,89 (HCWYERLQFHGHEAPFRVKV; not fully specified; Description of Artificial Sequence: Cyclic peptide) [compound 89],A (0.7 or more)
26,147 (HCSYERLIFHGHEAPFRVK(COCH2)V; thioether 2-19 (inferred)) [compound 147],A (0.7 or more)

# Results, then the substance that gave them:
row,Evaluation result of binding affinity to FGFR,Substance
1,B (0.5 or more and less than 0.7),292 (HCSYERLQFHGHEAPFKVK(COCH2)V; thioether 2-19 (inferred)) [compound 292]
2,C (0.1 or more and less than 0.5),317 (HCTWERLRFLGHIAPFWVK(COCH2)R; thioether 2-19 (inferred)) [compound 317]
3,B (0.5 or more and less than 0.7),226 (HK(COCH2)TWERLIFLGHIAPFWVCR; thioether 2-19 (inferred)) [compound 226]
4,A (0.7 or more),296 (HCMYERLQFHGHEAPFRVK(COCH2)V; thioether 2-19 (inferred)) [compound 296]
5,C (0.1 or more and less than 0.5),313 (HCQWERLIFLGHIAPFWVK(COCH2)R; thioether 2-19 (inferred)) [compound 313]
6,A (0.7 or more),223 (HCSYERLQFHGHEAPFRVK(COCH2)H; thioether 2-19 (inferred)) [compound 223]
7,A (0.7 or more),287 (HCSYERLKFHGHEAPFRVK(COCH2)V; thioether 2-19 (inferred)) [compound 287]
8,A (0.7 or more),331 (HCSYERLIFHGHLAPFWVK(COCH2)V; thioether 2-19 (inferred)) [compound 331]
9,A (0.7 or more),218 (HCSYERLQFHGHEAPFRVK(COCH2)S; thioether 2-19 via Ac; not fully specified) [compound 218]
10,B (0.5 or more and less than 0.7),325 (HCTWERLIFLGHIAPFWVK(COCH2)S; thioether 2-19 (inferred)) [compound 325]
11,C (0.1 or more and less than 0.5),306 (HCSYERLQFHGHEAMFRVK(COCH2)V; thioether 2-19 (inferred)) [compound 306]
12,A (0.7 or more),371 (CERLIFHGHEAPFWVK(COCH2)V; thioether 1-16) [compound 371]
13,C (0.1 or more and less than 0.5),253 (ICWTQLVLDGLYAPFLHK(COCH2)S; thioether 2-18 (inferred)) [compound 253]
14,A (0.7 or more),328 (HCSYERLIFHGHIAPFWVK(COCH2)V; thioether 2-19 (inferred)) [compound 328]
15,B (0.5 or more and less than 0.7),285 (HCSYKRLQFHGHEAPFRVK(COCH2)V; thioether 2-19 (inferred)) [compound 285]
